ChEMBL document CHEMBL3751788, “The new facile and straightforward method for the synthesis of 4H-1,2,3-thiadiazolo[5,4-b]indoles and determination of their antiproliferative activity” (Eur J Med Chem, 2016)
Activity calls are given as the source filed them. The calls are words filed in the database; no cut-off is given here.

Legend:
[1] = test system: Jurkat; test: Induction of reactive oxygen species in human Jurkat cells after 48 hrs by flow cytometry analysis; type: functional, cell-based
[2] = test system: MCF7; test: Antiproliferative activity against human MCF7 cells after 48 hrs by MTT assay; type: functional, cell-based; conditions: MCF7, 48 h
[3] = test system: HT-29; test: Antiproliferative activity against human HT-29 cells after 72 hrs by MTT assay; type: functional, cell-based; conditions: HT-29, 72 h
[4] = test system: K562; test: Induction of apoptosis in human K562 cells assessed as early apoptotic cells at 25 uM after 48 hrs by annexin-V-FITC/PI staining based flow cytometry; type: functional, cell-based
[5] = test system: Jurkat; test: Induction of apoptosis in human Jurkat cells assessed as early apoptotic cells at 25 uM after 48 hrs by annexin-V-FITC/PI staining based flow cytometry; type: functional, cell-based
[6] = test system: K562; test: Induction of reactive oxygen species in human K562 cells after 48 hrs by flow cytometry analysis; type: functional, cell-based
[7] = test system: K562; test: Induction of apoptosis in human K562 cells assessed as late apoptotic cells at 25 uM after 48 hrs by annexin-V-FITC/PI staining based flow cytometry; type: functional, cell-based
[8] = test system: HEK293; test: Antiproliferative activity against human HEK293 cells incubated with 2000 cells per well after 48 hrs by MTT assay; type: cell-based; conditions: HEK293, 48 h
[9] = test system: Jurkat; test: Induction of apoptosis in human Jurkat cells assessed as late apoptotic cells at 25 uM after 48 hrs by annexin-V-FITC/PI staining based flow cytometry; type: functional, cell-based
[10] = test system: HT-29; test: Antiproliferative activity against human HT-29 cells after 96 hrs by MTT assay; type: functional, cell-based; conditions: HT-29, 96 h
[11] = organism: Mus musculus; test: Induction of apoptosis in C57BL/6 mouse liver mitochondrial assessed as cytochrome c release after 1 hr by immunoblotting method; type: functional; conditions: Mitochondria
[12] = test system: Jurkat; test: Induction of apoptosis in human Jurkat cells assessed as increase in cleaved PARP-1 level at 20 uM after 48 hrs by immunoblotting; type: functional, cell-based
[13] = test system: K562; test: Induction of apoptosis in human K562 cells assessed as early apoptotic cells at 10 uM after 48 hrs by annexin-V-FITC/PI staining based flow cytometry; type: functional, cell-based
[14] = test system: HEK293; test: Antiproliferative activity against human HEK293 cells incubated with 3000 cells per well after 48 hrs by MTT assay; type: cell-based; conditions: HEK293, 48 h
[15] = test system: Jurkat; test: Induction of apoptosis in human Jurkat cells assessed as early apoptotic cells at 10 uM after 48 hrs by annexin-V-FITC/PI staining based flow cytometry; type: functional, cell-based
[16] = test system: K562; test: Induction of reactive oxygen species in human K562 cells at >= 50 uM after 48 hrs by flow cytometry analysis; type: functional, cell-based
[17] = test system: Jurkat; test: Induction of apoptosis in human Jurkat cells assessed as increase in cleaved PARP-1 level at 50 and 100 uM after 48 hrs by immunoblotting; type: functional, cell-based
[18] = test system: Jurkat; test: Induction of apoptosis in human Jurkat cells after 48 hrs at 50 uM by annexin-V-FITC/PI staining based flow cytometry; type: functional, cell-based
[19] = test system: Jurkat; test: Induction of reactive oxygen species in human Jurkat cells at >= 50 uM after 48 hrs by flow cytometry analysis; type: functional, cell-based
[20] = test system: HepG2; test: Antiproliferative activity against human HepG2 cells after 48 hrs by MTT assay; type: functional, cell-based; conditions: HepG2, 48 h
[21] = test system: K562; test: Induction of apoptosis in human K562 cells after 48 hrs at 50 uM by annexin-V-FITC/PI staining based flow cytometry; type: functional, cell-based

Compound | Activity [1] | EC50 [2] | EC50 [3] | Activity [6] | EC50 [8] | EC50 [10] | Activity [11] | also measured
Clc1ccc2[nH]c3snnc3c2c1 | Dose-dependent effect | 31.2 µM | 26.2 µM | Dose-dependent effect | 24.4 µM | 33.8 µM | – | Activity [4]: Active; Activity [5]: Active; Activity [7]: Active; Activity [9]: Active
COc1ccc(S(=O)(=O)n2c3ccccc3c3nnsc32)cc1 | Dose-dependent effect | 12.9 µM | 7.97 µM | Dose-dependent effect | 15.3 µM | 6.97 µM | inactive | Activity [12]: Active; Activity [13]: Active; EC50 [14]: 12.3 µM; Activity [15]: Active
O=C(c1ccc(Cl)cc1)n1c2ccccc2c2nnsc21 | – | – | 49.4 µM | – | – | 52.3 µM | inactive | Activity [16]: Active; Activity [17]: Active; Activity [18]: Active; Activity [19]: Active; EC50 [20]: 60.2 µM; Activity [21]: Active
